Source: ChEMBL document CHEMBL4130376, “Discovery of methylsulfonyl indazoles as potent and orally active respiratory syncytial Virus(RSV) fusion inhibitors” (Eur J Med Chem, 2017)

Columns and labels:
[1] = Metabolic stability in mouse liver microsomes by high-throughput screening based assay; assay type: ADME, microsome; conditions: read-out: Stability
[2] = Metabolic stability in human liver microsomes by high-throughput screening based assay; assay type: ADME, microsome; conditions: read-out: Stability
[3] = Effective permeability of the compound by PAMPA; assay type: ADME; conditions: read-out: Peff
[4] = Metabolic stability in rat liver microsomes by high-throughput screening based assay; assay type: ADME, microsome; conditions: read-out: Stability
[5] = Tmax in ICR mouse at […], po; assay type: ADME, organism-based; conditions: in vivo
[6] = Half life in ICR mouse at […], po; assay type: ADME, organism-based; conditions: in vivo
[7] = Plasma clearance in ICR mouse at 2 mg/kg, iv; assay type: ADME, organism-based
[8] = Volume of distribution at steady state in ICR mouse at 2 mg/kg, iv; assay type: ADME, organism-based; conditions: in vivo, read-out: Vdss
[9] = Half life in ICR mouse at 2 mg/kg, iv; assay type: ADME, organism-based; conditions: in vivo
[10] = (§1) Cmax in ICR mouse at […], po; assay type: ADME, organism-based; parameters: dose 7.9 mg/kg, route oral; conditions: in vivo
[11] = Cmax in ICR mouse at 2 mg/kg, iv; assay type: ADME, organism-based; parameters: dose 2 mg/kg, route intravenous; conditions: in vivo
[12] = (§2) AUC (0 to 24 hrs) in ICR mouse at 2 mg/kg, iv; assay type: ADME, organism-based; parameters: time < 24 hr, dose 2 mg/kg, route intravenous; conditions: ICR, in vivo
[13] = (§3) Oral bioavailability in ICR mouse at […]; assay type: ADME, organism-based; conditions: in vivo
[14] = (§4) AUC (0 to 24 hrs) in ICR mouse at […], po; assay type: ADME, organism-based; parameters: time < 24 hr, dose 7.9 mg/kg, route oral; conditions: in vivo
Mus musculus [15] = experiment: as §4; assay type: ADME, organism-based; parameters: time < 24 hr, dose 8.3 mg/kg, route oral; conditions: in vivo
[16] = as §1; assay type: ADME, organism-based; parameters: dose 8.3 mg/kg, route oral; conditions: in vivo
Mus musculus [17] = experiment: as §2; assay type: ADME, organism-based; parameters: time < 24 hr, dose 2 mg/kg, route intravenous; conditions: in vivo, 24 h
Mus musculus [18] = experiment: as §3; assay type: ADME, organism-based; conditions: in vivo
[19] = AUC (0 to 24 hrs) in rat at 10 mg/kg, po; assay type: ADME, organism-based; parameters: time < 24 hr, dose 10 mg/kg, route oral; conditions: in vivo
[20] = Tmax in rat at 10 mg/kg, po; assay type: ADME, organism-based; conditions: in vivo
[21] = Oral bioavailability in rat at 10 mg/kg; assay type: ADME, organism-based; conditions: in vivo
[22] = Volume of distribution at steady state in rat at 2 mg/kg, iv; assay type: ADME, organism-based; conditions: in vivo, read-out: Vdss
[23] = Cmax in rat at 10 mg/kg, po; assay type: ADME, organism-based; parameters: dose 10 mg/kg, route oral; conditions: in vivo
[24] = AUC (0 to 24 hrs) in rat at 2 mg/kg, iv; assay type: ADME, organism-based; parameters: dose 2 mg/kg, time < 24 hr, route intravenous; conditions: in vivo
[25] = Plasma clearance in rat at 2 mg/kg, iv; assay type: ADME, organism-based
[26] = Cmax in rat at 2 mg/kg, iv; assay type: ADME, organism-based; parameters: dose 2 mg/kg, route intravenous; conditions: in vivo
[27] = Half life in rat at 10 mg/kg, po; assay type: ADME, organism-based; conditions: in vivo
[28] = Half life in rat at 2 mg/kg, iv; assay type: ADME, organism-based; conditions: in vivo

## CS(=O)(=O)CCCc1c(CN2C(=O)C3(CC3)c3ccncc32)nc2cc(Cl)ccn12
[1]
  CLhep predicted: 83.3 mL/min/kg
[2]
  CLhep predicted: 11.7 mL/min/kg

## CS(=O)(=O)CCc1c(CN2C(=O)C3(CC3)c3ccncc32)nc2cc(Cl)ccn12
[1]
  CLhep predicted: 63.5 mL/min/kg
[2]
  CLhep predicted: 2.6 mL/min/kg

## CS(=O)(=O)c1nn(Cc2nc3cc(Cl)ccc3n2CCC(O)C(F)(F)F)c2cnccc12 (stereo not given)
[1]
  CLhep predicted: 26.5 mL/min/kg
[3]
  Papp: 4.29 ×10⁻⁶ cm/s
[4]
  CLhep predicted: 18 mL/min/kg
[2]
  CLhep predicted: 4.51 mL/min/kg

## CC(C)(O)CCn1c(Cn2nc(S(C)(=O)=O)c3ccncc32)nc2cc(Cl)ccc21
[5]
  Tmax: 0.25 h
[6]
  half-life: 1.98 h
[7]
  clearance: 61.1 mL/min/kg
[8]
  Vd: 1.93 L/kg
[1]
  CLhep predicted: 26.6 mL/min/kg
[3]
  Papp: 2.39 ×10⁻⁶ cm/s
[4]
  CLhep predicted: 8.45 mL/min/kg
[9]
  half-life: 0.47 h
[10]
  Cmax: 324 ng/mL
[2]
  CLhep predicted: 2.95 mL/min/kg
[11]
  Cmax: 894 ng/mL
[12]
  AUC(0-t) at 24 h: 701 ng·h/mL
[13]
  bioavailability: 32.5%
[14]
  AUC(0-t) at 24 h: 546 ng·h/mL

## CS(=O)(=O)c1nn(Cc2nc3cc(Cl)ccc3n2CCC(F)(F)F)c2cnccc12
Mus musculus [15]
  AUC: 2730 ng·h/mL
[5]
  Tmax: 1 h
[6]
  half-life: 3.16 h
[7]
  clearance: 12.2 mL/min/kg
[16]
  Cmax: 589 ng/mL
[8]
  Vd: 1.04 L/kg
[1]
  CLhep predicted: 18 mL/min/kg
[3]
  Papp: 2.81 ×10⁻⁶ cm/s
[4]
  CLhep predicted: 0.28 mL/min/kg
[9]
  half-life: 1.03 h
[2]
  CLhep predicted: 1.09 mL/min/kg
[11]
  Cmax: 1940 ng/mL
Mus musculus [17]
  AUC: 4830 ng·h/mL
Mus musculus [18]
  F: 42.8%

## CS(=O)(=O)CCn1c(Cn2cc(S(C)(=O)=O)c3ccccc32)nc2cc(Cl)ccc21
[3]
  Papp: 2.3 ×10⁻⁶ cm/s

## CS(=O)(=O)CCn1c(Cn2cc(S(C)(=O)=O)c3ccccc32)nc2ccccc21
[1]
  CLhep predicted: 19.7 mL/min/kg
[3]
  Papp: 4.87 ×10⁻⁶ cm/s
[2]
  CLhep predicted: 7.33 to 9 mL/min/kg

## CS(=O)(=O)CCCn1c(Cn2nc(S(C)(=O)=O)c3ccccc32)nc2cc(Cl)ccc21
[19]
  AUC(0-t) at 24 h: 204 ng·h/mL
[20]
  Tmax: 2.67 h
[21]
  bioavailability: 1.7%
[22]
  Vd: 2.5 L/kg
[1]
  CLhep predicted: 14.9 mL/min/kg
[3]
  Papp: 2.78 ×10⁻⁶ cm/s
[23]
  Cmax: 22.2 ng/mL
[2]
  CLhep predicted: 3.42 mL/min/kg
[24]
  AUC(0-t) at 24 h: 2470 ng·h/mL
[25]
  clearance: 17.4 mL/min/kg
[26]
  Cmax: 1160 ng/mL
[27]
  half-life: 3.66 h
[28]
  half-life: 3.91 h

## CS(=O)(=O)CCn1c(Cc2cn(S(C)(=O)=O)c3ccccc23)nc2ccccc21
[1]
  CLhep predicted: 73.2 mL/min/kg
[2]
  CLhep predicted: 16.5 mL/min/kg
